From article PMC9578396, “Intrinsic Antibacterial Activity of Xeruborbactam In Vitro: Assessing Spectrum and Mode of Action” (Antimicrobial Agents and Chemotherapy, 2022)
In brackets after ≈: the same amount, converted by molar mass. Read-outs that look alike come from different tables or passages of the source.

Columns and labels:
Format in all cases: cell-based
Escherichia coli = test: Broth microdilution MIC (CLSI), Escherichia coli
Summary of the method: (§1)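 MICs by CLSI broth microdilution in in-house panels. Strains tested were engineered strains carrying porin and efflux mutation combinations, KPC-producing clinical isolates and derivatives cured of KPC plasmids, and KPC-producing clinical isolates enriched for porin mutations.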

Pseudomonas aeruginosa = test: Broth microdilution MIC (CLSI), Pseudomonas aeruginosa; details: Pseudomonas aeruginosa
Source text: (§2) (i) Panels of engineered bacterial strains containing various combinations of porin and efflux mutations were used. The construction of all the strains used in the study is described in detail in references, [44], and [45]. (ii) KPC-producing clinical isolates and their derivatives that lost KPC plasmids were used also. These strains and their origins are described in the Table S2. (iii) Finally, KPC-producing clinical isolates enriched in strains with porin mutations were used. The mutations identified include various deletions, insertions, nonsense mutations, and decreased expression. Most of the isolates were obtained from JMI Laboratories or International Health Management Associates (IHMA); they were collected in the course of global surveillance studies.
(§3) Bacterial isolates were subjected to broth microdilution susceptibility testing, performed according to Clinical and Laboratory Standards Institute (CLSI) methods ([46]), using panels prepared in-house. […] Xeruborbactam was synthesized at Qpex Biopharma, San Diego, CA. Avibactam was purchased from eNovation Chemicals LLC, Bridgewater, NJ, USA; zidebactam was from MedKoo Biosciences, Inc., Morrisville, NC, and nacubactam was from Advanced ChemBlocks, Hayward, CA. Durlobactam was synthesized at Acme Bioscience, Palo Alto, CA, USA.

Acinetobacter baumannii = test: Broth microdilution MIC (CLSI), Acinetobacter baumannii; details: Acinetobacter baumannii
Source text: as §2, §3

Enterobacterales = test: Broth microdilution MIC (CLSI), Enterobacterales; details: read-out: antibacterial potency (MIC)
Source text: Bacterial isolates were subjected to broth microdilution susceptibility testing, performed according to Clinical and Laboratory Standards Institute (CLSI) methods ([46]), using panels prepared in-house. Meropenem was purchased from Sandoz, and all other antibiotics were from Sigma-Aldrich. Xeruborbactam was synthesized at Qpex Biopharma, San Diego, CA. Avibactam was purchased from eNovation Chemicals LLC, Bridgewater, NJ, USA; zidebactam was from MedKoo Biosciences, Inc., Morrisville, NC, and nacubactam was from Advanced ChemBlocks, Hayward, CA. Durlobactam was synthesized at Acme Bioscience, Palo Alto, CA, USA.

Klebsiella pneumoniae = test: microbe, parasite or virus in culture; details: Klebsiella pneumoniae
Summary of the method: as §1

[1] = EC1078, PBP2 same as MG1655, PBP3 I332V
[2] = EC1081, PBP2 same as MG1655, PBP3 Q227H
[3] = EC1085, PBP2 T331P, PBP3 A233T I332V
[4] = EC1088, PBP2 A308G, PBP3 same as MG1655
[5] = EC1098, PBP2 V217M, PBP3 YRIN ins, I532L
[6] = EC1103, PBP2 same as MG1655, PBP3 YRIN ins, Q227H, E349K, I532L
[7] = EC1105, PBP2 A543T, PBP3 YRIN ins, Q227H, E349K, I532L
[8] = EC1119, PBP2 same as MG1655, PBP3 YRIN ins, Q227H, E349K, I532L
[9] = EC1121, PBP2 V217M, PBP3 YRIN ins, E349K, I532L
[10] = Escherichia coli, strain ECM5497, wild type, read-out: MIC
[11] = Escherichia coli, strain ECM6001, ΔacrB
[12] = Escherichia coli, strain ECM6502, marR (AcrAB overexpression)
[13] = strain PAM1020, wild type, read-out: MIC
[14] = strain PAM1032, nalB (MexAB-OprM overexpression)
[15] = strain PAM1033, nfxB (MexCD-OprJ overexpression)
[16] = strain PAM1034, nfxC (MexEF-OprN overexpression)
[17] = strain AB1007, wild type, read-out: MIC
[18] = strain ACM1015, ΔadeIJK ΔadeABC
[19] = strain ACM1027, adeN (AdeIJK overexpression)
[20] = strain ACM1030, adeS (AdeABC overexpression)
[21] = KPM1026a, parent, read-out: MIC
[22] = strain KPM1026a, wild type, read-out: MIC
[23] = strain KPM1027, ramR, read-out: MIC
[24] = strain KPM1171, ramR ompK36_1171, read-out: MIC
[25] = strain KPM2040, ompK36_2040, read-out: MIC
[26] = strain KPM2613, ΔompK35 ompK36_2040

## O=C(NNC(=O)[C@@H]1CC[C@@H]2CN1C(=O)N2OS(=O)(=O)O)[C@@H]1CCCNC1 [Zidebactam]
Escherichia coli; [1]
  MIC: 8
Escherichia coli; [2]
  MIC: 0.125
Escherichia coli; [3]
  MIC: 16
Escherichia coli; [4]
  MIC: 0.25
Escherichia coli; EC1097, PBP2 M574I, PBP3 Q227H
  MIC: 0.25
Escherichia coli; [5]
  MIC: 0.25
Escherichia coli; [6]
  MIC: 0.25
Escherichia coli; [7]
  MIC: 0.5
Escherichia coli; [8]
  MIC: 8
Escherichia coli; [9]
  MIC: 0.5
Escherichia coli; [10]
  MIC: 0.125 µg/mL
Escherichia coli; [11]
  MIC: 0.125 µg/mL
Escherichia coli; [12]
  MIC: 0.5 µg/mL
Escherichia coli; overexpression of AcrAB in E. coli
  fold effect on MIC: 4 fold
Pseudomonas aeruginosa; [13]
  MIC: 2 µg/mL
Pseudomonas aeruginosa; [14]
  MIC: 4 µg/mL
Pseudomonas aeruginosa; [15]
  MIC: 0.125 µg/mL
Pseudomonas aeruginosa; [16]
  MIC: 2 µg/mL
Pseudomonas aeruginosa; strain PAM1106, mexA::Tet
  MIC: 2 µg/mL
Pseudomonas aeruginosa; strain PAM1154, oprM::Hg
  MIC: 2 µg/mL
Acinetobacter baumannii; [17]
  MIC: > 256 µg/mL
Acinetobacter baumannii; strain ACM1013, ΔadeIJK
  MIC: > 256 µg/mL
Acinetobacter baumannii; strain ACM1014, ΔadeABC
  MIC: > 256 µg/mL
Acinetobacter baumannii; [18]
  MIC: > 256 µg/mL
Acinetobacter baumannii; [19]
  MIC: > 256 µg/mL
Acinetobacter baumannii; [20]
  MIC: > 256 µg/mL
Enterobacterales
  MIC: 0.125 to 0.5 µg/mL (≈ 0.319 to 1.28 µM)
Klebsiella pneumoniae; KPM1026a, alone, read-out: MIC
  MIC: 0.25 µg/mL
Klebsiella pneumoniae; [21]
  MIC: 0.25 µg/mL
Klebsiella pneumoniae; KPM3532 (TolQ::M189K), alone
  MIC: > 64 µg/mL
Klebsiella pneumoniae; KPM3532, TolQ::M189K
  MIC: > 64 µg/mL
Klebsiella pneumoniae; KPM3534 (TolQ::S31F), alone
  MIC: > 64 µg/mL
Klebsiella pneumoniae; KPM3534, TolQ::S31F
  MIC: > 64 µg/mL
Klebsiella pneumoniae; KPM4235, TolQ::IP(183–1844)PR
  MIC: > 64 µg/mL
Klebsiella pneumoniae; KPM4236, TolQ::TAA at aa 103
  MIC: > 64 µg/mL
Klebsiella pneumoniae; KPM4238, TolQ::S25F
  MIC: > 64 µg/mL
Klebsiella pneumoniae; KPM4239, TolQ::S28F
  MIC: > 64 µg/mL
Klebsiella pneumoniae; KPM4240, TolQ::S25Y
  MIC: > 64 µg/mL
Klebsiella pneumoniae; [22]
  MIC: 0.25 µg/mL
Klebsiella pneumoniae; [23]
  MIC: 0.25 µg/mL
Klebsiella pneumoniae; [24]
  MIC: > 64 µg/mL
Klebsiella pneumoniae; [25]
  MIC: > 64 µg/mL
Klebsiella pneumoniae; strain KPM2600, ΔompK35
  MIC: 0.25 µg/mL
Klebsiella pneumoniae; [26]
  MIC: > 64 µg/mL
Klebsiella pneumoniae; strain KPM2696, ΔacrB
  MIC: 0.25 µg/mL

## CC1=C[C@@H]2CN(C(=O)N2OS(=O)(=O)O)[C@@H]1C(N)=O [Durlobactam]
Escherichia coli; [1]
  MIC: 8
Escherichia coli; [2]
  MIC: 0.25
Escherichia coli; [3]
  MIC: 32
Escherichia coli; [4]
  MIC: 0.5
Escherichia coli; EC1097, PBP2 M574I, PBP3 Q227H
  MIC: 1
Escherichia coli; [5]
  MIC: 0.5
Escherichia coli; [6]
  MIC: 0.25
Escherichia coli; [7]
  MIC: 1
Escherichia coli; [8]
  MIC: 8
Escherichia coli; [9]
  MIC: 0.5
Escherichia coli; [10]
  MIC: 0.5 µg/mL
Escherichia coli; [11]
  MIC: 0.5 µg/mL
Escherichia coli; [12]
  MIC: 0.25 µg/mL
Pseudomonas aeruginosa; after inactivation of MexAB-OprM, read-out: MIC
  MIC: 8 µg/mL
Pseudomonas aeruginosa; before inactivation of MexAB-OprM (wild type), read-out: MIC
  MIC: 64 µg/mL
Pseudomonas aeruginosa; [13]
  MIC: 64 µg/mL
Pseudomonas aeruginosa; [14]
  MIC: > 256 µg/mL
Pseudomonas aeruginosa; [15]
  MIC: 4 µg/mL
Pseudomonas aeruginosa; [16]
  MIC: 128 µg/mL
Pseudomonas aeruginosa; strain PAM1106, mexA::Tet
  MIC: 8 µg/mL
Pseudomonas aeruginosa; strain PAM1154, oprM::Hg
  MIC: 8 µg/mL
Acinetobacter baumannii; [17]
  MIC: 64 µg/mL
Acinetobacter baumannii; strain ACM1013, ΔadeIJK
  MIC: 32 µg/mL
Acinetobacter baumannii; strain ACM1014, ΔadeABC
  MIC: 64 µg/mL
Acinetobacter baumannii; [18]
  MIC: 16 µg/mL
Acinetobacter baumannii; [19]
  MIC: 128 µg/mL
Acinetobacter baumannii; [20]
  MIC: 64 µg/mL
Enterobacterales
  MIC: 0.125 to 0.5 µg/mL (≈ 0.451 to 1.8 µM)
Klebsiella pneumoniae; KPM1026a, alone, read-out: MIC
  MIC: 0.25 µg/mL
Klebsiella pneumoniae; [21]
  MIC: 0.25 µg/mL
Klebsiella pneumoniae; KPM3532 (TolQ::M189K), alone
  MIC: 8 µg/mL
Klebsiella pneumoniae; KPM3532, TolQ::M189K
  MIC: 8 µg/mL
Klebsiella pneumoniae; KPM3534 (TolQ::S31F), alone
  MIC: 16 µg/mL
Klebsiella pneumoniae; KPM3534, TolQ::S31F
  MIC: 16 µg/mL
Klebsiella pneumoniae; KPM4235, TolQ::IP(183–1844)PR
  MIC: 16 µg/mL
Klebsiella pneumoniae; KPM4236, TolQ::TAA at aa 103
  MIC: 16 µg/mL
Klebsiella pneumoniae; KPM4238, TolQ::S25F
  MIC: 16 µg/mL
Klebsiella pneumoniae; KPM4239, TolQ::S28F
  MIC: 16 µg/mL
Klebsiella pneumoniae; KPM4240, TolQ::S25Y
  MIC: 16 µg/mL
Klebsiella pneumoniae; [22]
  MIC: 0.5 µg/mL
Klebsiella pneumoniae; [23]
  MIC: 0.5 µg/mL
Klebsiella pneumoniae; [24]
  MIC: 32 µg/mL
Klebsiella pneumoniae; [25]
  MIC: 4 µg/mL
Klebsiella pneumoniae; strain KPM2600, ΔompK35
  MIC: 0.5 µg/mL
Klebsiella pneumoniae; [26]
  MIC: 8 µg/mL
Klebsiella pneumoniae; strain KPM2696, ΔacrB
  MIC: 0.25 µg/mL
